Reference: US12427144B2, “Compounds and methods for the targeted degradation of androgen receptor” (Arvinas Operations, Inc., priority 2019, dated 2025)

Assays:
androgen receptor = biological target: T1, androgen receptor (Homo sapiens, UniProt P10275); test: AR ELISA assay (PathScan AR Sandwich ELISA), VCaP cells; format: cell-based; settings: drug treatment 5 hours
T1 construct: endogenous in cells; host or cells: VCaP
T1 sequence (P10275 1-920): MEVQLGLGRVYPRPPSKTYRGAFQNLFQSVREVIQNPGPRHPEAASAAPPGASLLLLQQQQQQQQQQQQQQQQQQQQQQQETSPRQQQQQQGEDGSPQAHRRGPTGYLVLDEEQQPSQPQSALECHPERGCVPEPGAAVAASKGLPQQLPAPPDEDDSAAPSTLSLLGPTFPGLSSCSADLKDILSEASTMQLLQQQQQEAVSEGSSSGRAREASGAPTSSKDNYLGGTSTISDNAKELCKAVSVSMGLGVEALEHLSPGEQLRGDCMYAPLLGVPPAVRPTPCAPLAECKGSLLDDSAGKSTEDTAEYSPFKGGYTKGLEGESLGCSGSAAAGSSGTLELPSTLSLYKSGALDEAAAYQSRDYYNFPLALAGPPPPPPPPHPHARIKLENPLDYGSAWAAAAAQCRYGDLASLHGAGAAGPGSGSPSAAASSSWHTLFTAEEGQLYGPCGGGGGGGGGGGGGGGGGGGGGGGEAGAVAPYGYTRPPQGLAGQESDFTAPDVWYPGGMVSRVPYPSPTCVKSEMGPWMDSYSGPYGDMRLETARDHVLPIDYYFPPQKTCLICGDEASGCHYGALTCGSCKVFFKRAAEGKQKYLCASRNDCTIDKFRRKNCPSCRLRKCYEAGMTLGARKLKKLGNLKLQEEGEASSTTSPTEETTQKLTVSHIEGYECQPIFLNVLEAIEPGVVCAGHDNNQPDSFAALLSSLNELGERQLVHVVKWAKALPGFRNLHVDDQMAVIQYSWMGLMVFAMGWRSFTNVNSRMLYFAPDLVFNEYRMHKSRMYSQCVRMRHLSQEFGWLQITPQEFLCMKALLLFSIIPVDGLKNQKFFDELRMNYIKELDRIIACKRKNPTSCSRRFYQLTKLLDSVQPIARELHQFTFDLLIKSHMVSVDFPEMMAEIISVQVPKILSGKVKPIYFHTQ
Experimental: Compounds were evaluated in this assay in LNCaP and/or VCaP cells utilizing similar protocols. The protocols used with VCaP cells are described below. The androgen receptor ELISA assay was performed using PathScan AR Sandwich ELISA (Cell Signaling Catalog #12850) according to the following assay steps:
VCaP cells were seeded at 40,000 cells/well at a volume of 100 μL/well in VCaP assay medium [Phenol red free RPMI (Gibco Cat #11835-030); 5% Charcoal Stripped (Dextran treated) FBS (Omega Scientific, Cat #FB-04); 1% penstrep (Life Technologies, Gibco Cat #: 10378-016)] in Corning 3904 plates. The cells were incubated for a minimum of 3 days. Cells were dosed with PROTACs diluted in 0.01% DMSO and the drug treatment was allowed for 5 hours.
AR ELISA (Cell Signaling) was performed as follows. 1× Cell Signaling Cell lysis buffer was made (Catalogue #9803; comes with the kit). Media from the treated wells is aspirated, and 100 μL 1× cell lysis buffer/well is added. The cells were placed on a shaker for 10 minutes at 4° C. Twenty microliters of lysate was transferred to 100 μl of Diluent in ELISA plate (0.15 μg/ml-[…]). The lysate-diluent mixture was shaken for 30 minutes at 37° C. Allow mouse AR antibody, anti-mouse antibody, TMB, and STOP solution to come to room temperature. The 1×ELISA buffer included in kit was made and loaded in the reservoir. Media from the plates was discarded, the ELISA plate tapped hard on paper towel, and washed 4×200 μl ELISA wash buffer using a plate washer.
One-hundred (100) […] of mouse AR detection Ab was added; the plates were covered and shaken at 37° C. for 1 hour; media was discarded from the plates, the plates were tapped on a paper towel, washed 4× with 200 μL ELISA wash buffer with a plate washer.
One-hundred (100) […] of anti-mouse—HRP conjugated Ab (comes with the kit) was added; the plates were covered and shaken at 37° C. for 30 minutes; the TMB reagent was allowed to come to room temperature; the media was discard from the plate, the plates were tapped on paper towel, washed 4× with 200 μL of ELISA wash buffer; the plates were tapped the plates on paper towel. One-hundred (100) L of TMB was added and the plates shaken for 2 minutes—while watching for color development. One-hundred (100) L Stop solution was added when light blue color developed. Plates were shaken and read at 450 nm.
Progression of prostate cancer in patients treated with anti-androgen therapy usually involves one of several mechanisms of enhanced Androgen Receptor (AR) signaling, including increased intratumoral androgen synthesis, increased AR expression and AR mutations. PROTACs (PROteolysis TArgeting Chimera), which use bi-functional molecules that simultaneously bind a target of choice and an E3 ligase, cause ubiquitination via induced proximity and degradation of the targeted, pathological protein. As opposed to traditional target inhibition, which is a competitive process, degradation is a progressive process. As such, it is less susceptible to increases in endogenous ligand, target expression, or mutations in the target. Thus, this technology appears to be ideal for addressing the mechanisms of AR resistance in patients with prostate cancer. Data was analyzed and plotted using GraphPad Prism software.

Androgen Receptor (AR) = biological target: T2, Androgen Receptor (AR) (Homo sapiens, UniProt P10275); test: AR immunofluorescence staining, high content imager, VCaP cells; format: cell-based; settings: for DC50: AR degradation by immunofluorescence; for Dmax: maximal AR degradation
T2 construct: endogenous in cells; host or cells: VCaP
T2 sequence (P10275 1-920): T1 sequence (P10275 1-920)
Outline: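 VCaP cells treated with compound, fixed in 4% PFA (8% 2× solution added directly for low-adherence lines), permeabilised with 0.1% Triton X-100 and blocked. Stained overnight at 4° C with anti-AR antibody, then FITC anti-rabbit secondary plus phalloidin and DAPI/Hoechst. Read by high-content imaging.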

Row | Compound | DC50 (androgen receptor) [nM] | Dmax (androgen receptor) [%] | DC50 (Androgen Receptor (AR)) [nM] | Dmax (Androgen Receptor (AR)) [%]
1 | Cc1cc(O[C@H]2C(C)(C)[C@H](NC(=O)c3cnc(N4CCC(CN(C(C)C)[C@H]5C[C@H](Oc6cccc(C(=O)NC7CCC(=O)NC7=O)c6)C5)CC4)cn3)C2(C)C)cc(C)c1C#N (stereo partly shown) [Compound 15, 5-(4-[[(propan-2-yl)[(1r,3r)-3-[3-[(2,6-dioxopiperidin-3-yl)carbamoyl]phenoxy]cyclobutyl]amino]methyl]piperidin-1-yl)-N-[(1r,3r)-3-(4-cyano-3,5-dimethylphenoxy)-2,2,4,4-tetramethylcyclobutyl]pyrazine-2-carboxamide] | 1 to 10 | < 50 |  | 
2 | Cc1cc(O[C@H]2C(C)(C)[C@H](NC(=O)c3ccc(N4CCC(CN5CCN(c6cnc(C(=O)N[C@H]7CCC(=O)NC7=O)cn6)CC5)CC4)cc3)C2(C)C)cc(C)c1C#N [Compound 33, 5-[4-[[1-[4-[[3-(4-cyano-3,5-dimethyl-phenoxy)-2,2,4,4-tetramethyl-cyclobutyl]carbamoyl]phenyl]-4-piperidyl]methyl]piperazin-1-yl]-N-[(3S)-2,6-dioxo-3-piperidyl]pyrazine-2-carboxamide] |  |  | < 1 | ≥ 70
3 | Cc1cc(O[C@H]2C(C)(C)[C@H](NC(=O)c3ccc(N4CCC(CC5CCN(C67CC(C(=O)NC8CCC(=O)NC8=O)(C6)C7)CC5)CC4)cc3)C2(C)C)cc(C)c1C#N (mixture of isomers) [Compound 70, rac-N-(2,6-dioxopiperidin-3-yl)-3-(4-{[1-(4-{[(1r,3r)-3-(4-cyano-3,5-dimethylphenoxy)-2,2,4,4-tetramethylcyclobutyl]carbamoyl}phenyl)piperidin-4-yl]methyl}piperidin-1-yl)bicyclo[1.1.1]pentane-1-carboxamide] |  |  | < 1 | < 50
4 | Cc1cc(O[C@H]2C(C)(C)[C@H](NC(=O)c3ccc(N4CCOC(CN(C(C)C)[C@H]5C[C@@H](Oc6ccc(F)c(C(=O)N[C@H]7CCC(=O)NC7=O)c6)C5)C4)cc3)C2(C)C)cc(C)c1C#N (stereo partly drawn) [Compound 61, 4-(2-{[(propan-2-yl)[(1r,3r)-3-(3-{[(3S)-2,6-dioxopiperidin-3-yl]carbamoyl}-4-fluorophenoxy)cyclobutyl]amino]methyl}morpholin-4-yl)-N-[(1r,3r)-3-(4-cyano-3,5-dimethylphenoxy)-2,2,4,4-tetramethylcyclobutyl]benzamide] |  |  | < 1 | 50 to 70
5 | COCCN(C[C@H]1CN(c2ccc(C(=O)N[C@H]3C(C)(C)[C@H](Oc4cc(C)c(C#N)c(C)c4)C3(C)C)cc2)CCO1)[C@H]1C[C@H](Oc2ccc(C(=O)N[C@H]3CCC(=O)NC3=O)c(F)c2)C1 [Compound 67, 4-[(2S)-2-{[(2-methoxyethyl)[(1r,3r)-3-(4-{[(3S)-2,6-dioxopiperidin-3-yl]carbamoyl}-3-fluorophenoxy)cyclobutyl]amino]methyl}morpholin-4-yl]-N-[(1r,3r)-3-(4-cyano-3,5-dimethylphenoxy)-2,2,4,4-tetramethylcyclobutyl]benzamide] |  |  | 1 to 10 | ≥ 70
6 | COc1cc(N2CCN(C[C@H]3CN(c4ccc(C(=O)N[C@H]5C(C)(C)[C@H](Oc6cc(C)c(C#N)c(C)c6)C5(C)C)cc4)CCO3)CC2)ccc1C(=O)NC1CCC(=O)NC1=O (stereo partly drawn) [Compound 59, N-(2,6-dioxopiperidin-3-yl)-2-methoxy-4-(4-{[(2S)-4-(4-{[(1r,3r)-3-(4-cyano-3,5-dimethylphenoxy)-2,2,4,4-tetramethylcyclobutyl]carbamoyl}phenyl)morpholin-2-yl]methyl}piperazin-1-yl)benzamide] |  |  | < 1 | ≥ 70

Further lines, results first:

Row | DC50 (androgen receptor) [nM] | Dmax (androgen receptor) [%] | DC50 (Androgen Receptor (AR)) [nM] | Dmax (Androgen Receptor (AR)) [%] | Compound
7 | < 1 | ≥ 70 |  |  | CC1(C)[C@H](NC(=O)c2ccc(N3CCC(CN4CCN(c5ccc(C(=O)NC6CCC(=O)NC6=O)cc5)CC4)CC3)nn2)C(C)(C)[C@H]1Oc1ccc(C#N)c(Cl)c1 (stereo partly shown) [Compound 3, N-[3-(3-chloro-4-cyanophenoxy)-2,2,4,4-tetramethylcyclobutyl]-6-[4-[(4-[4-[(2,6-dioxopiperidin-3-yl)carbamoyl]phenyl]piperazin-1-yl)methyl]piperidin-1-yl]pyridazine-3-carboxamide]
8 |  |  | < 1 | ≥ 70 | N#Cc1ccc(O[C@H]2CC[C@H](NC(=O)c3ccc(N4CCC(CN5CCN(c6ccc(C(=O)NC7CCC(=O)NC7=O)cc6)CC5)CC4)nn3)CC2)cc1Cl (stereo partly shown) [Compound 23, N-[4-(3-chloro-4-cyano-phenoxy)cyclohexyl]-6-[4-[[4-[4-[(2,6-dioxo-3-piperidyl)carbamoyl]phenyl]piperazin-1-yl]methyl]-1-piperidyl]pyridazine-3-carboxamide]
9 |  |  | 10 to 100 | ≥ 70 | COc1cc(O[C@H]2C(C)(C)[C@H](NC(=O)c3ccc(N4CCC(CN5CCN(c6ccc(F)c(C(=O)N[C@H]7CCC(=O)NC7=O)c6)CC5)CC4)cc3)C2(C)C)ccc1C#N [Compound 69, N-[(3S)-2,6-dioxopiperidin-3-yl]-2-fluoro-5-(4-{[1-(4-{[(1r,3r)-3-(4-cyano-3-methoxyphenoxy)-2,2,4,4-tetramethylcyclobutyl]carbamoyl}phenyl)piperidin-4-yl]methyl}piperazin-1-yl)benzamide]
10 |  |  | < 1 | ≥ 70 | Cc1cc(O[C@H]2C(C)(C)[C@H](NC(=O)c3ccc(N4CCC(CN5CCN(c6ccc(C(=O)N[C@H]7CCC(=O)NC7=O)nc6)CC5)CC4)cc3)C2(C)C)cc(C)c1C#N [Compound 41, 5-[4-[[1-[4-[[3-(4-cyano-3,5-dimethyl-phenoxy)-2,2,4,4-tetramethyl-cyclobutyl]carbamoyl]phenyl]-4-piperidyl]methyl]piperazin-1-yl]-N-[(3S)-2,6-dioxo-3-piperidyl]pyridine-2-carboxamide]
11 |  |  | 1 to 10 | < 50 | COc1cc(O[C@H]2C(C)(C)[C@H](NC(=O)c3ccc(N4CCC(CN5CCN(c6ccc(C(=O)N[C@@H]7CCC(=O)NC7=O)c(F)c6)CC5)CC4)cc3)C2(C)C)ccc1C#N [Compound 14, 4-(4-((1-(4-(((1R,3R)-3-(4-cyano-3-methoxyphenoxy)-2,2,4,4-tetramethylcyclobutyl)carbamoyl)phenyl)piperidin-4-yl)methyl)piperazin-1-yl)-N—((R)-2,6-dioxopiperidin-3-yl)-2-fluorobenzamide]
